Key:
Assay type in all cases: binding
[1] = test system: human monoclonal antibody CRJB
[2] = test system: human monoclonal antibody CR57
[3] = test system: human monoclonal antibody CRJA
[4] = test system: human monoclonal antibody CRJB; remark: listed apart in the source
[5] = test system: human monoclonal antibody CR57; remark: listed apart in the source
[6] = test system: human monoclonal antibody CRJA; remark: listed apart in the source

| Sequence | Binding of CRJB to linear peptide (PEPSCAN-ELISA signal) [1] | Binding of CR57 to linear peptide (PEPSCAN-ELISA signal) [2] | Binding of CRJA to linear peptide (PEPSCAN-ELISA signal) [3] | Binding of CRJB (10 μg/ml) to looped/cyclic peptide (PEPSCAN-ELISA signal) [4] | Binding of CR57 (10 μg/ml) to looped/cyclic peptide (PEPSCAN-ELISA signal) [5] | Binding of CRJA (10 μg/ml) to looped/cyclic peptide (PEPSCAN-ELISA signal) [6] | Binding of CRJB (10 μg/ml) to looped/cyclic peptide (PEPSCAN-ELISA) [4] | Binding of CR57 (10 μg/ml) to looped/cyclic peptide (PEPSCAN-ELISA) [5] | Binding of CRJA (10 μg/ml) to looped/cyclic peptide (PEPSCAN-ELISA) [6] | Binding of human monoclonal antibody CRJB to linear peptide (PEPSCAN-ELISA signal) [1] | Binding of human monoclonal antibody CR57 to linear peptide (PEPSCAN-ELISA signal) [2] | Binding of human monoclonal antibody CRJA to linear peptide (PEPSCAN-ELISA signal) [3] | Binding of CRJB to looped/cyclic peptide (PEPSCAN-ELISA signal) [4] | Binding of CR57 to looped/cyclic peptide (PEPSCAN-ELISA signal) [5] | Binding of CRJA to looped/cyclic peptide (PEPSCAN-ELISA signal) [6] |
| --- | --- | --- | --- | --- | --- | --- | --- | --- | --- | --- | --- | --- | --- | --- | --- |
| NPRLGMSCDIFTNSR | 113 | 90 | 82 | 101 | 78 | 91 | – | – | – | – | – | – | – | – | – |
| GFVDERGLYKSLKGA | 120 | 84 | 104 | – | – | – | 86 | 107 | 87 | – | – | – | – | – | – |
| KLGPWSPIDIHHLSC | 105 | 72 | 72 | 65 | 97 | 85 | – | – | – | – | – | – | – | – | – |
| CRAAYNWKMAGDPRY | 118 | 87 | 113 | 68 | 107 | 111 | – | – | – | – | – | – | – | – | – |
| RLMDGTWVAMQTSNE | 113 | 100 | 99 | – | – | – | 89 | 96 | 82 | – | – | – | – | – | – |
| LSCPNNLVVEDEGCT | 117 | 69 | 90 | 74 | 72 | 97 | – | – | – | – | – | – | – | – | – |
| SNETKWCPPDQLVNL | 129 | 99 | 94 | – | – | – | 93 | 129 | 102 | – | – | – | – | – | – |
| HDFRSDEIEHLVVEE | 107 | 69 | 78 | – | – | – | 79 | 24 | 111 | – | – | – | – | – | – |
| ESSVIPLVHPLADPS | 138 | 104 | 121 | – | – | – | 92 | 108 | 91 | – | – | – | – | – | – |
| KTTKESLVIISPSVA | 112 | 101 | 82 | 75 | 111 | 104 | – | – | – | – | – | – | – | – | – |
| TIFNKTLMEADAHYK | 123 | 107 | 100 | – | – | – | 91 | 114 | 96 | – | – | – | – | – | – |
| SPSVADLDPYDRSLH | 114 | 59 | 72 | 63 | 76 | 51 | – | – | – | – | – | – | – | – | – |
| EDFVEVHLPDVHNQV | – | – | – | – | – | – | – | – | – | 141 | 90 | 114 | 89 | 117 | 104 |
| NLHDFRSDEIEHLVV | 113 | 83 | 97 | – | – | – | 62 | 90 | 86 | – | – | – | – | – | – |
| VADLDPYDRSLHSRV | 113 | 71 | 92 | 74 | 85 | 89 | – | – | – | – | – | – | – | – | – |
| LHNPYPDYRWLRTVK | 106 | 79 | 86 | 93 | 99 | 93 | – | – | – | – | – | – | – | – | – |
| SVADLDPYDRSLHSR | 106 | 49 | 92 | 71 | 58 | 83 | – | – | – | – | – | – | – | – | – |
| GDEAEDFVEVHLPDV | – | – | – | – | – | – | – | – | – | 124 | 46 | 93 | 87 | 87 | 82 |
| KESLVIISPSVADLD | 117 | 86 | 123 | 85 | 86 | 83 | – | – | – | – | – | – | – | – | – |
| WLRTVKTTKESLVII | 104 | 41 | 85 | 78 | 55 | 78 | – | – | – | – | – | – | – | – | – |
| FVEVHLPDVHNQVSG | – | – | – | – | – | – | – | – | – | 143 | 92 | 93 | 101 | 150 | 103 |
| HLSCPNNLVVEDEGC | 119 | 65 | 76 | 64 | 76 | 92 | – | – | – | – | – | – | – | – | – |

Reference: patent US20060263802A1 (priority 2003, published 2006)
